Results published in patent publication US20110118298A1, “COMPOSITIONS, KITS, AND METHODS FOR IDENTIFICATION, ASSESSMENT, PREVENTION, AND THERAPY OF CANCER” (INFINITY PHARMACEUTICALS, INC., priority 2009, published 2011).
Entries after “also recorded” stand apart in the source; their conditions may differ. Where a name gives a salt, the structure may show the parent alone.

How the values were obtained:
[1] = system: MAPK pathway (p-bRAF, p-MEK), cleaved caspase 3 in Colo205, Colo201 xenografts; experiment: Pharmacodynamic analysis after a single dose, mutant xenografts; format: in vivo; details: 100 mg/kg
Procedure: To further investigate a potential correlation between the effect of IPI-493 on molecular components of the RAS-RAF-ERK pathway and efficacy, pharmacodynamic analysis was performed on mutant bRAF (Colo205, Colo201) and wild-type (Colo320HSR) xenograft models after a single 100 mpk dose. […] Moreover, when p-MEK activity was assessed for all the CRC xengrafts, there was a clear delineation of sensitivity between mutant and wild type models, further supporting the hypothesis that MAPK pathway activity can be a surrogate for IPI-493 efficacy. […] Altogether, these provide rationale for a clinical path in this disease.

[2] = Phase II study of IPI-504 monotherapy in advanced NSCLC: adverse events and laboratory abnormalities; format: in vivo, human
Procedure: Treatment consisted of a 30-minute infusion of intravenous IPI-504 on days 1, 4, 8 and 11 of a 21-day cycle. Therapy continued until progressive disease (PD), intolerable side effects, or elective withdrawal. A total of 76 patients were enrolled. The starting dose was 400 mg/m^2 for 75 patients. In April 2009, the dose for patients who were on study (19 patients) was lowered to 225 mg/m^2, due to hepatotoxicities observed at the 400 mg/m^2 dose in a separate trial of IPI-504 in patients with gastrointestinal stromal tumors (GIST) (Demetri G. D. et al. Final results from a phase III study of IPI-504 (retaspimycin hydrochloride) versus placebo in patients with gastrointestinal stromal tumors (GIST) following failure of kinase inhibitor therapies. Paper presented at: Gastrointestinal Cancers Symposium; Jan. 22-24, 2010, 2010; Orlando, Fla.), and the last enrolled patient started at a dose of 225 mg/m^2.
All patients were assessed for safety by history, physical examination, blood chemistries, liver function tests and blood counts, at baseline and prior to each infusion. Amylase and lipase were assessed if there were symptoms of pancreatitis. Adverse events were graded using the NCl common toxicity criteria version 3.0 (NCl. Common terminology criteria for adverse events (CTCAE) version 3.0 Aug. 9, 2006). Slit lamp eye examinations were performed during screening and electrocardiograms were obtained during screening and before and after the first infusion, to evaluate for keratitis and QTc prolongation, respectively. Radiographic evaluation of tumor response by CT-scan was performed after every 2 cycles. All films were reviewed and independently assessed by a central radiology core laboratory.
Summary statistics were used to describe safety and included all patients treated with IPI-504. PFS was defined as the time from enrollment to progressive disease or death, censored at the last known follow-up, and was calculated with the Kaplan-Meier method, following the intent-to-treat principle.

[3] = maximum post-baseline grade based on laboratory values

CO[C@H]1/C=C\C=C(/C)C(=O)NC2=CC(=O)C(N)=C(C[C@@H](C)C[C@H](OC)[C@H](O)[C@@H](C)/C=C(\C)[C@@H]1OC(N)=O)C2=O [IPI-493, 17-AG]
phosphorylated bRAF and MEK (p-bRAF, p-MEK) ([1]; single 100 mpk dose of IPI-493, ~24 hr post dose): downregulation of the activity of both bRAF and MEK; also recorded: time dependent decrease in phosphorylated BRAF; also recorded: time dependent decrease in phosphorylated MEK | cleaved caspase 3 ([1]; single 100 mpk dose of IPI-493): time dependent increase in cleaved caspase 3 activity

C=CCNc1c(O)cc2c(O)c1C[C@@H](C)C[C@H](OC)[C@H](O)[C@@H](C)/C=C(\C)[C@H](OC(N)=O)[C@@H](OC)/C=C\C=C(/C)C(=O)N2 [IPI-504, retaspimycin hydrochloride]
Abdominal pain: patients with Grade 1 or 2 event ([2]; 76 patients): 18 (23.7) n (%) | Abdominal pain: patients with any event ([2]; 76 patients): 18 (23.7) n (%) | Abdominal pain: patients with ≧Grade 3 event ([2]; 76 patients): 1 (1.3) n (%) | Anorexia: patients with Grade 1 or 2 event ([2]; 76 patients): 18 (23.7) n (%) | Anorexia: patients with any event ([2]; 76 patients): 19 (25.0) n (%) | Anorexia: patients with ≧Grade 3 event ([2]; 76 patients): 4 (5.3) n (%) | Arthralgia: patients with Grade 1 or 2 event ([2]; 76 patients): 17 (22.4) n (%) | Arthralgia: patients with any event ([2]; 76 patients): 19 (25.0) n (%) | Arthralgia: patients with ≧Grade 3 event ([2]; 76 patients): 2 (2.6) n (%) | Back pain: patients with Grade 1 or 2 event ([2]; 76 patients): 16 (21.1) n (%) | Back pain: patients with any event ([2]; 76 patients): 16 (21.1) n (%) | Back pain: patients with ≧Grade 3 event ([2]; 76 patients): 0 (0.0) n (%) | Constipation: patients with Grade 1 or 2 event ([2]; 76 patients): 18 (23.7) n (%) | Constipation: patients with any event ([2]; 76 patients): 18 (23.7) n (%) | Constipation: patients with ≧Grade 3 event ([2]; 76 patients): 2 (2.6) n (%) | Cough: patients with Grade 1 or 2 event ([2]; 76 patients): 24 (31.6) n (%) | Cough: patients with any event ([2]; 76 patients): 24 (31.6) n (%) | Cough: patients with ≧Grade 3 event ([2]; 76 patients): 2 (2.6) n (%) | Dehydration: patients with Grade 1 or 2 event ([2]; 76 patients): 11 (14.5) n (%) | Dehydration: patients with any event ([2]; 76 patients): 14 (18.4) n (%) | Dehydration: patients with ≧Grade 3 event ([2]; 76 patients): 3 (3.9) n (%) | Diarrhoea: patients with Grade 1 or 2 event ([2]; 76 patients): 37 (48.7) n (%) | Diarrhoea: patients with any event ([2]; 76 patients): 40 (52.6) n (%) | Diarrhoea: patients with ≧Grade 3 event ([2]; 76 patients): 8 (10.5) n (%) | Dizziness: patients with Grade 1 or 2 event ([2]; 76 patients): 12 (15.8) n (%) | Dizziness: patients with any event ([2]; 76 patients): 12 (15.8) n (%) | Dizziness: patients with ≧Grade 3 event ([2]; 76 patients): 0 (0.0) n (%) | Dyspnoea: patients with Grade 1 or 2 event ([2]; 76 patients): 15 (19.7) n (%) | Dyspnoea: patients with any event ([2]; 76 patients): 18 (23.7) n (%) | Dyspnoea: patients with ≧Grade 3 event ([2]; 76 patients): 6 (7.9) n (%) | Fatigue: patients with Grade 1 or 2 event ([2]; 76 patients): 41 (53.9) n (%) | Fatigue: patients with any event ([2]; 76 patients): 44 (57.9) n (%) | Fatigue: patients with ≧Grade 3 event ([2]; 76 patients): 6 (7.9) n (%) | Headache: patients with Grade 1 or 2 event ([2]; 76 patients): 19 (25.0) n (%) | Headache: patients with any event ([2]; 76 patients): 19 (25.0) n (%) | Headache: patients with ≧Grade 3 event ([2]; 76 patients): 0 (0.0) n (%) | Infusion site pain: patients with Grade 1 or 2 event ([2]; 76 patients): 15 (19.7) n (%) | Infusion site pain: patients with any event ([2]; 76 patients): 15 (19.7) n (%) | Infusion site pain: patients with ≧Grade 3 event ([2]; 76 patients): 0 (0.0) n (%) | Insomnia: patients with Grade 1 or 2 event ([2]; 76 patients): 12 (15.8) n (%) | Insomnia: patients with any event ([2]; 76 patients): 12 (15.8) n (%) | Insomnia: patients with ≧Grade 3 event ([2]; 76 patients): 0 (0.0) n (%) | Musculoskeletal chest pain: patients with Grade 1 or 2 event ([2]; 76 patients): 11 (14.5) n (%) | Musculoskeletal chest pain: patients with any event ([2]; 76 patients): 13 (17.1) n (%) | Musculoskeletal chest pain: patients with ≧Grade 3 event ([2]; 76 patients): 3 (3.9) n (%) | Myalgia: patients with Grade 1 or 2 event ([2]; 76 patients): 18 (23.7) n (%) | Myalgia: patients with any event ([2]; 76 patients): 19 (25.0) n (%) | Myalgia: patients with ≧Grade 3 event ([2]; 76 patients): 1 (1.3) n (%) | Nausea: patients with Grade 1 or 2 event ([2]; 76 patients): 41 (53.9) n (%) | Nausea: patients with any event ([2]; 76 patients): 43 (56.6) n (%) | Nausea: patients with ≧Grade 3 event ([2]; 76 patients): 6 (7.9) n (%) | Pyrexia: patients with Grade 1 or 2 event ([2]; 76 patients): 12 (15.8) n (%) | Pyrexia: patients with any event ([2]; 76 patients): 12 (15.8) n (%) | Pyrexia: patients with ≧Grade 3 event ([2]; 76 patients): 0 (0.0) n (%) | Urine colour abnormal: patients with Grade 1 or 2 event ([2]; 76 patients): 22 (28.9) n (%) | Urine colour abnormal: patients with any event ([2]; 76 patients): 22 (28.9) n (%) | Urine colour abnormal: patients with ≧Grade 3 event ([2]; 76 patients): 0 (0.0) n (%) | Vision blurred: patients with Grade 1 or 2 event ([2]; 76 patients): 12 (15.8) n (%) | Vision blurred: patients with any event ([2]; 76 patients): 12 (15.8) n (%) | Vision blurred: patients with ≧Grade 3 event ([2]; 76 patients): 0 (0.0) n (%) | Vomiting: patients with Grade 1 or 2 event ([2]; 76 patients): 25 (32.9) n (%) | Vomiting: patients with any event ([2]; 76 patients): 28 (36.8) n (%) | Vomiting: patients with ≧Grade 3 event ([2]; 76 patients): 6 (7.9) n (%) | deaths on study considered related to study drug ([2]; 76 patients): Three | patients who discontinued therapy for adverse events ([2]; 76 patients): 14% | patients with dose reductions for toxicity ([2]; 76 patients): 12% | bilirubin elevation ([2]; Grade 3 or 4): No Grade 3 or 4 bilirubin elevation | ALT elevations ([2]; Grade 3 or greater): 7% | AST elevations ([2]; Grade 3 or greater): 9% | alkaline phosphatase elevations ([2]; Grade 3 or greater): 5% | tolerability ([2]; IPI-504 monotherapy, hydrochloride): generally well tolerated | alanine aminotransferase (ALT) elevations ([2]; any grade): 41% | alkaline phosphatase elevations ([2]; any grade): 62% | aspartate aminotransferase (AST) elevations ([2]; any grade): 49% | ALT (liver function test): patients with Grade 1 or 2 event [2, 3]: 26 (34.2) n (%) | ALT (liver function test): patients with any event [2, 3]: 31 (40.8) n (%) | ALT (liver function test): patients with ≧Grade 3 event [2, 3]: 5 (6.6) n (%) | AST (liver function test): patients with Grade 1 or 2 event [2, 3]: 30 (39.5) n (%) | AST (liver function test): patients with any event [2, 3]: 37 (48.7) n (%) | AST (liver function test): patients with ≧Grade 3 event [2, 3]: 7 (9.2) n (%) | Alkaline phosphatase (liver function test): patients with Grade 1 or 2 event [2, 3]: 43 (56.6) n (%) | Alkaline phosphatase (liver function test): patients with any event [2, 3]: 47 (61.8) n (%) | Alkaline phosphatase (liver function test): patients with ≧Grade 3 event [2, 3]: 4 (5.3) n (%) | Total bilirubin (liver function test): patients with Grade 1 or 2 event [2, 3]: 3 (3.9) n (%) | Total bilirubin (liver function test): patients with any event [2, 3]: 3 (3.9) n (%) | Total bilirubin (liver function test): patients with ≧Grade 3 event [2, 3]: 0 (0.0) n (%) | transient, non-toxic purple-colored urine ([2]; share of patients): About a third
